Where two headings read alike, the source gives them in different places.
Legend:
[1] = target: T1, CYP17 (human testicular microsome) (Homo sapiens, UniProt P05093); assay: CYP17 enzymatic assay (IC50) (Biological Example 4); format: biochemical; details: human testicular microsome
T1 construct: using microsomal fraction from human testis (Celsis Cat #S00110) as the enzyme source; tissue Celsis S00110; host or cells: human testis microsomal fraction
T1 sequence (P05093 1-508): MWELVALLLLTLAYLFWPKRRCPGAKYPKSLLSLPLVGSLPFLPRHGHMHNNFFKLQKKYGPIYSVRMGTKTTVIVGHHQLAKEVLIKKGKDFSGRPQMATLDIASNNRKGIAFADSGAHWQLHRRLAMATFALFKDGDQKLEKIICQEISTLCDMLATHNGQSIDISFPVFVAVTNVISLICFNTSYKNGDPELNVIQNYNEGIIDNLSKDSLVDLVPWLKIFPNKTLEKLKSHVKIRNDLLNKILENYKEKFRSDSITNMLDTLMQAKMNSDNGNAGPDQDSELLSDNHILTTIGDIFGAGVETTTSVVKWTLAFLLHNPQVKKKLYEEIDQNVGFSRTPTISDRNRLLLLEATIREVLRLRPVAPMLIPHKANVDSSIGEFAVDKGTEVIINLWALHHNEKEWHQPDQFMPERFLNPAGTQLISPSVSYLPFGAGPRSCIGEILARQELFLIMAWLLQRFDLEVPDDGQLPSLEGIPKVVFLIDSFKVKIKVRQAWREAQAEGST

[2] = Human liver microsome stability assay (Biological Example 8b); details: liver microsomes, pH 7.4
[3] = target: T1, CYP17 (human testicular microsome); assay: CYP17 enzymatic assay (% inhibition at 10 nM), version 1 (Biological Example 5); format: biochemical
[4] = target: T1, CYP17 (human testicular microsome); assay: CYP17 enzymatic assay (% inhibition at 1 nM) (Biological Example 12); format: biochemical; details: compound at 1 nM, read-out: CYP17 enzymatic assay % inhibition at 1 nM (Biological Example No. 12)
[5] = DHEA by ELISA, read-out: Biological Example No. 4: CYP17 enzymatic assay IC50
[6] = 10 nM compound, DHEA by ELISA, read-out: Biological Example No. 5: CYP17 percent inhibition at 10 nM (version 1)
[7] = read-out: CYP17 enzymatic assay IC50 (Biological Example No. 4)
[8] = compound at 10 nM, read-out: CYP17 enzymatic assay % inhibition at 10 nM (Biological Example No. 5)

Row | IC50 [1, 5] | inhibition at 0.01 µM [3, 6] | SMILES | IC50 ([1]; read-out: Biological Example No. 4: CYP17 enzymatic assay IC50) | half-life at 1 μM [2] | inhibition at 0.001 µM [4] | IC50 [1, 7] | inhibition at 0.01 µM [3, 8]
1 |  |  | C[C@]12CC[C@H](O)CC1=CC[C@@H]1[C@@H]2CC[C@]2(C)C(c3cnccc3F)=CC[C@@H]12 [Cmpd 285] | < 11 nM | 1 to 50 min |  |  | 
2 | < 11 nM | 50 to 80% | CCCOc1cncc(C2=CC[C@H]3[C@@H]4CCN5C(=O)CCCC[C@]5(C)[C@H]4CC[C@]23C)c1 [Compound 42, (11aR,13aS)-11a,13a-dimethyl-1-(5-propoxypyridin-3-yl)-3b,4,5,8,9,10,11,11a,11b,12,13,13a-dodecahydro-3H-azepino[2,1-a]cyclopenta[f]isoquinolin-7(3aH)-one] |  |  |  |  | 
3 | < 11 nM | 50 to 80% | C=Cc1cncc(C2=CC[C@H]3[C@@H]4CCN5C(=O)CCCC[C@]5(C)[C@H]4CC[C@]23C)c1 [Compound 43, (11aR,13aS)-11a,13a-dimethyl-1-(5-vinylpyridin-3-yl)-3b,4,5,8,9,10,11,11a,11b,12,13,13a-dodecahydro-3H-azepino[2,1-a]cyclopenta[f]isoquinolin-7(3aH)-one] |  |  |  |  | 
4 | < 11 nM | 50 to 80% | COc1cncc(C2=CC[C@H]3[C@@H]4CCC5=CC(=O)NCC[C@]5(C)[C@H]4CC[C@]23C)c1 [Compound 53, (5aR,7aS)-8-(5-methoxypyridin-3-yl)-5a,7a-dimethyl-4,5,5a,5b,6,7,7a,8,9,10,10a,10b,11,12-tetradecahydrocyclopenta[5,6]naphtho[2,1-c]azepin-3(2H)-one] |  |  |  |  | 
5 | < 11 nM | 50 to 80% | Cc1cncc(C2=CC[C@H]3[C@@H]4CC[C@H]5CCOCC[C@]5(C)[C@H]4CC[C@]23C)c1 [Compound 126, 3-((5aS,5bS,7aS,10aS,10bR,12aS)-5a,7a-dimethyl-2,4,5,5a,5b,6,7,7a,10,10a,10b,11,12,12a-tetradecahydro-1H-cyclopenta[5,6]naphtho[1,2-d]oxepin-8-yl)-5-methylpyridine] |  |  |  |  | 
6 |  |  | C[C@]12CCC3C(CC=C4C[C@H](O)CC[C@@]43C)C1=CC=C2c1cccnc1 (stereo partly drawn) [Compound 199, (3R,10R,13S)-10,13-dimethyl-17-(pyridin-3-yl)-2,3,4,7,8,9,10,11,12,13-decahydro-1H-cyclopenta[a]phenanthren-3-ol] |  | 1 to 50 min | > 50% | < 11 nM | 
7 |  |  | C[C@]12CCC3C(CC(O)C45CC4CC[C@]35C)C1=CC=C2c1cccnc1 (stereo partly drawn) [Compound 200, (3aR,5aS)-3a,5a-dimethyl-6-(pyridin-3-yl)-1,1a,2,3,3a,3b,4,5,5a,8b,9,10-dodecahydrocyclopenta[a]cyclopropa[2,3]cyclopenta[1,2-f]naphthalen-10-ol] |  | 1 to 50 min | > 50% | < 11 nM | 
8 |  |  | CC(=O)N[C@@H]1CC[C@@]2(C)C(CCC3C2CC[C@]2(C)C(c4cccnc4)=CCC32)C1 (stereo partly drawn) [Compound 215, N-((3R,10S,13S)-10,13-dimethyl-17-(pyridin-3-yl)-2,3,4,5,6,7,8,9,10,11,12,13,14,15-tetradecahydro-1H-cyclopenta[a]phenanthren-3-yl)acetamide] |  | 1 to 50 min | > 50% | < 11 nM | 
9 |  |  | C[C@]12CC[C@@H](NC(=O)C3CC3)CC1CCC1C2CC[C@]2(C)C(c3cccnc3)=CCC12 (stereo partly drawn) [Compound 220, N-((3R,10S,13S)-10,13-dimethyl-17-(pyridin-3-yl)-2,3,4,5,6,7,8,9,10,11,12,13,14,15-tetradecahydro-1H-cyclopenta[a]phenanthren-3-yl)cyclopropanecarboxamide] |  | 1 to 50 min | > 50% | < 11 nM | 
10 |  |  | C[C@]12CC[C@@H](NC(=O)C3CC3)CC1=CCC1C2CC[C@]2(C)C(c3cccnc3)=CCC12 (stereo partly drawn) [Compound 224, N-((3R,10R,13S)-10,13-dimethyl-17-(pyridin-3-yl)-2,3,4,7,8,9,10,11,12,13,14,15-dodecahydro-1H-cyclopenta[a]phenanthren-3-yl)cyclopropanecarboxamide] |  | 1 to 50 min | > 50% | < 11 nM | 
11 |  |  | COc1cncc(C2=CC[C@H]3[C@@H]4CC=C5C[C@H](NC(=O)C6CC6)CC[C@]5(C)[C@H]4CC[C@]23C)c1 [Compound 230, N-((3R,10R,13S)-17-(5-methoxypyridin-3-yl)-10,13-dimethyl-2,3,4,7,8,9,10,11,12,13,14,15-dodecahydro-1H-cyclopenta[a]phenanthren-3-yl)cyclopropanecarboxamide] |  | 1 to 50 min | > 50% | < 11 nM | 
12 |  |  | CCCC(=O)N[C@@H]1CC[C@@]2(C)C(=CC[C@@H]3[C@@H]2CC[C@]2(C)C(c4cccnc4)=CC[C@@H]32)C1 [Compound 235, N-((3R,10R,13S)-10,13-dimethyl-17-(pyridin-3-yl)-2,3,4,7,8,9,10,11,12,13,14,15-dodecahydro-1H-cyclopenta[a]phenanthren-3-yl)butyramide] |  | 1 to 50 min | > 50% | < 11 nM | 
13 |  |  | COC1C[C@H]2[C@@H]3CC=C(n4ccnc4)[C@@]3(C)CC[C@@H]2[C@@]2(C)CCC3CC312 (stereo partly drawn) [Compound 236, 1-((3aR,5aS)-10-methoxy-3a,5a-dimethyl-1,1a,2,3,3a,3b,4,5,5a,8,8a,8b,9,10-tetradecahydrocyclopenta[a]cyclopropa[2,3]cyclopenta[1,2-f]naphthalen-6-yl)-1H-imidazole] |  |  | 10 to 50% | < 11 nM | > 80%
14 |  |  | C[C@]12CC[C@H](O)C[C@@H]1CC[C@@H]1[C@@H]2CC[C@]2(C)C(n3ccnn3)=CC[C@@H]12 [Compound 451, (3S,5S,8R,9S,10S,13S,14S)-10,13-dimethyl-17-(1H-1,2,3-triazol-1-yl)-2,3,4,5,6,7,8,9,10,11,12,13,14,15-tetradecahydro-1H-cyclopenta[a]phenanthren-3-ol] |  |  | > 50% | < 11 nM | > 80%
15 |  |  | COC1CC[C@@]2(C)[C@@H](CC[C@@H]3[C@@H]2CC[C@]2(C)C(n4ccnn4)=CC[C@@H]32)C1 (stereo partly drawn) [Compound 452, 1-((5S,8R,9S,10S,13S,14S)-3-methoxy-10,13-dimethyl-2,3,4,5,6,7,8,9,10,11,12,13,14,15-tetradecahydro-1H-cyclopenta[a]phenanthren-17-yl)-1H-1,2,3-triazole] |  |  |  |  | 1 to 50%

Row | SMILES | IC50 [1, 5] | inhibition at 0.01 µM [3, 6] | IC50 ([1]; read-out: Biological Example No. 4: CYP17 enzymatic assay IC50) | half-life at 1 μM [2] | inhibition at 0.001 µM [4] | IC50 [1, 7] | inhibition at 0.01 µM [3, 8]
16 | COc1cncc(C2=CC=C3[C@@H]4CC=C5C[C@@H](OC(C)=O)CC[C@]5(C)[C@H]4CC[C@]23C)c1 [Compound 80, (3S,10R,13S)-17-(5-methoxypyridin-3-yl)-10,13-dimethyl-2,3,4,7,8,9,10,11,12,13-decahydro-1H-cyclopenta[a]phenanthren-3-yl acetate] | < 11 nM | > 80% |  |  |  |  | 
17 | CC(=O)O[C@H]1CC[C@@]2(C)[C@@H](CC[C@H]3C4=CC=C(n5ccnc5)[C@@]4(C)CC[C@@H]32)C1 [Compound 169, (5S,8R,9S,10S,13S)-17-(1H-imidazol-1-yl)-10,13-dimethyl-2,3,4,5,6,7,8,9,10,11,12,13-dodecahydro-1H-cyclopenta[a]phenanthren-3-yl acetate] | < 11 nM | > 80% |  |  |  |  | 
